Experimental data published in BindingDB's records for doi:10.1021/acs.jmedchem.0c00249 (China Pharmaceutical University, 2020).

Columns and labels:
[1] = Inhibition of SHP2 E76K mutant in splenocytes derived from JMML patient assessed as reduction in GM-CSF induced colony formation of myeloid blast cells measured after 14 days
[2] = Inhibition of SHP2 E76K mutant in splenocytes derived from JMML patient assessed as reduction in cell proliferation in presence of GM-CSF

Q: Which IC50 [1] does the source give for `Cc1cc(C)c2[nH]c3nc(SCC(=O)Nc4cccc5ccccc45)nnc3c2c1` here?
A: 7.24 µM

Q: And the IC50 [2]?
A: 3.09 µM
